Experimental data: patent publication US20100256152A1, “NOVEL PHARMACEUTICAL COMPOSITION FOR TREATMENT OF SCHIZOPHRENIA” (ASTELLAS PHARMA INC., priority 2009, published 2010)
Structures can show the parent of a compound that is named as a salt.

Key:
[1] = tested on: phencyclidine induced prolonged finding latency; assay: Water finding task in mice after neonatal treatment with phencyclidine; assay type: in vivo, male ddY mice; settings: mouse; for phencyclidine induced prolonged finding latency improving action (in words): oral administration; for Minimum effective dose (mg/kg p.o.) (Example 4): smallest oral dose giving significantly short finding latency vs solvent group, as free form
Experimental: Verification of the therapeutic effect on schizophrenia was carried out using a water finding task in mice after neonatal treatment with phencyclidine. […] In addition, it has been reported that chronic treatment of PCP prolonged finding latency in the water-finding task (Mouri et al., 2007, Mol. Pharmacol., 180:152-60, herein incorporated by reference). Finding latency in the water-finding task provides a measure of latent learning in animals, which is thought to reflect attention. Attention is one of the most important domain of cognitive impairments in schizophrenia, we could evaluate the efficacy of drugs for cognitive impairments in schizophrenia using this task. Briefly, male ddY mice subcutaneously received PCP at a dose of 15 mg/kg or saline on postnatal day 7, 9 and 11. During the adult 7 weeks old, test compounds were orally administered to animals and 60 minutes later, the animals were placed in one corner of the open field and allowed to freely explore the training apparatus for 3 min. Immediately after the training trial, the animals were returned to their home cage and deprived of water until the test trial the next day. In the test trial, the mice were again placed individually in the test apparatus. The time between entering the alcove and drinking the water was measured. […] The solvent used was a 0.5% aqueous solution of methylcellulose. The statistical analysis was carried out between the solvent administered group and the drug administered groups, using Dunnett's test.

[2] = tested on: methamphetamine induced hyperlocomotion; assay: Methamphetamine induced hyperlocomotion model; assay type: in vivo, male ddY mouse; settings: smallest oral dose giving significantly small activity vs solvent group; mouse; as free form
Experimental: Verification of the therapeutic effect on schizophrenia was carried out using a methamphetamine induced hyperlocomotion model. Methamphetamine is a psychostimulant, and is known to cause symptoms that are similar to schizophrenia by increasing the transmission in the dopaminergic neurons. The abnormal behavior produced when methamphetamine is administered to an animal is generally used as a screening method for a therapeutic drug for schizophrenia (Oka et al., 1993, J. Pharmacol. Exp. Ther., 264:158-165, herein incorporated by reference). That is, a male ddY mouse was placed in an activity monitoring apparatus, and after 30 minutes, methamphetamine was administered. After administering methamphetamine, the mouse was immediately returned to the monitoring apparatus, and the activity for one hour from immediately after the return was measured. For the measurement of the activity, a Supermex sensor manufactured by Muromachi Kikai Co., Ltd. was used. […] The solvent used was a 0.5% aqueous solution of methylcellulose. The statistical analysis was carried out between the solvent administered group and the drug administered groups, using Dunnett's test.
The test compounds (1) to (5) all suppressed methamphetamine induced hyperlocomotion.

[3] = tested on: phencyclidine induced prolonged immobility; assay: Phencyclidine induced prolonged immobility model (forced swimming test); assay type: in vivo, male ddY mouse; settings: mouse; for phencyclidine induced prolonged immobility improving action (in words): oral administration; for Minimum effective dose (mg/kg p.o.) (Example 3): smallest oral dose giving significantly short immobility time vs solvent group, 1 h after administration, as free form
Experimental: Verification of the therapeutic effect on schizophrenia was carried out using a phencyclidine induced prolonged immobility model. Phencyclidine is a non-competitive antagonist of the N-methyl-D-aspartate receptor, a type of glutamate receptor, and abuse of this agent causes development of psychotic symptoms indistinguishable from those of schizophrenia. […] Forced swimming test is used as a screening assay for antidepressants, because immobility in this test is thought to reflect some aspect of depression such as lowering of motivation. Negative symptoms of schizophrenia also includes similar aspects, we could evaluate the efficacy of drugs for negative symptoms, such as apathy, using this test. Briefly, a male ddY mouse was gently placed in a cylindrical pool, and activity was measured for 3 min with SCANET (MV20-LAN, MELQUEST). Afterward immobility time was calculated with the SCANET file integrating software. Two days later, Mice were anesthetized with sodium pentobarbital. The Osmotic mini pumps (Alzet model 1002, DURECT Corporation) were subcutaneously implanted to mice. The pump infused saline or phencyclidine 1.2 mg/day/mouse with pumping rate of 0.25 μL/hour. Fourteen days after implantation, a test compound was administered to mice and an hour after administration, each mouse was gently placed in a cylindrical pool, and activity was measured for 3 min. Afterward immobility time was calculated. […] The solvent used was a 0.5% aqueous solution of methylcellulose. The statistical analysis was carried out between the solvent administered group and the drug administered groups, using Dunnett's test.

BEC1 potassium channel = target: T1, BEC1 potassium channel (Homo sapiens, UniProt Q9ULD8); assay: BEC1 inhibitory activity, 86Rb ion release from BEC1 expressing cells; assay type: cell-based; settings: BEC1 stably expressing CHO (dhfr-deficient) cells, 100 mM KCl stimulation, 86Rb release; as free form; read-out: IC50 (μM) (Example 1)
T1 construct: expressed in transfected cells
T1 sequence (Q9ULD8 1-1083): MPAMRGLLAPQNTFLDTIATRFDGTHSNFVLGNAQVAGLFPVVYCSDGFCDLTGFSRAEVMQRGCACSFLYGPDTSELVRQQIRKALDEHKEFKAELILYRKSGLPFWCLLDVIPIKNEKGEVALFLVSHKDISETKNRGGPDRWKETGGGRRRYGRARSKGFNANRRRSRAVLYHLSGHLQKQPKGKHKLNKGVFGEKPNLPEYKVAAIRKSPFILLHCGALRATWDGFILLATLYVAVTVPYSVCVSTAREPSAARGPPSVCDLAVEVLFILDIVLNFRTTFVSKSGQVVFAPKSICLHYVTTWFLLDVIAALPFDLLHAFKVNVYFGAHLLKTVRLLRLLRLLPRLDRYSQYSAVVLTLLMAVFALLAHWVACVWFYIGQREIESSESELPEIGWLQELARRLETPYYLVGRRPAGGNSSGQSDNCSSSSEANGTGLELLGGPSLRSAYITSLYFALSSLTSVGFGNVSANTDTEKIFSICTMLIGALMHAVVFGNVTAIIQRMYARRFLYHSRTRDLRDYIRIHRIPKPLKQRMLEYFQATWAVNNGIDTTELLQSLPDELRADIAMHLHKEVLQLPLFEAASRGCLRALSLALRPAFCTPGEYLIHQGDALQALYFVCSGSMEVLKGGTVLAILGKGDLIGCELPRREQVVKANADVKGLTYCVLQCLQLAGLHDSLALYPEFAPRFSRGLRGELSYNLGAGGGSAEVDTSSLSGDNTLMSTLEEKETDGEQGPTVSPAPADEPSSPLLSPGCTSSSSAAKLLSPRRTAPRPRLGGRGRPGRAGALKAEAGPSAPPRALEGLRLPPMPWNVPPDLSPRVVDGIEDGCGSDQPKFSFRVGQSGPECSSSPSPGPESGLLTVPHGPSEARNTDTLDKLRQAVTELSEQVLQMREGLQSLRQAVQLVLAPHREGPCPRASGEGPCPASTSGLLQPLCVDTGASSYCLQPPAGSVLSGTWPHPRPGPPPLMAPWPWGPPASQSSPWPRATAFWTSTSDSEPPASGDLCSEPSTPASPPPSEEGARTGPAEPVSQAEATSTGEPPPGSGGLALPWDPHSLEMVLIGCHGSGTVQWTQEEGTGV
Experimental: Method for measuring BEC1 inhibitory activity of compound utilizing 86Rb ion release amount as index
The channel activity of BEC1 was measured according to the method described in U.S. Pat. No. 6,326,168 or U.S. Pat. No. 7,375,222, herein incorporated by reference, utilizing the release of the ions of radioactive isotope 86Rb from BEC1 expressing cells as an index. Specifically, when BEC1 expressing cells which had taken in 86Rb ions were stimulated with 100 mM KCl, the radioactivity released from the same cells was designated as the channel activity of BEC1. 86Rb ions were incorporated into cells by culturing (3 hours, 37° C.) BEC1 stably expressing cells in the presence of 86RbCl (0.5 μCi/ml), and the unincorporated 86Rb ions were removed by washing the cells three times with HEPES buffered physiological saline (pH 7.4, 2.5 mM KCl). The same cells were incubated for 15 minutes at room temperature in the presence of a DMSO solution containing the test compound and HEPES buffered physiological saline, and then were further incubated for 5 minutes at room temperature in the presence of a 100 mM KCl-containing HEPES buffer solution (pH 7.4) containing the same compound. The extracellular fluid was recovered, and then the remaining cells were lysed in 0.1 N NaOH and recovered. The Cherenkov radioactivities of the extracellular fluid and the cell lysate were respectively measured, and the sum was designated as the total radioactivity. The release amount of 86Rb ions was expressed as the percentage of the radioactivity of the extracellular fluid with respect to the total radiation activity. The value obtained in the presence of the compound was designated as a test value, the value obtained in the absence of the compound was designated as a control value, and the value obtained when the cells were not stimulated with 100 mM KCl was designated as a blank value. […] In addition, as for the BEC1 expressing cells, BEC1 stably expressing cells produced according to the method described in U.S. Pat. No. 6,326,168 or U.S. Pat. No. 7,375,222, herein incorporated by reference, using a dihydrofolate reductase (dhfr)-deficient strain of Chinese Hamster ovary cells, were used.

Row | SMILES | IC50 (BEC1 potassium channel) | Minimum effective dose (mg/kg p.o.) (Example 2) [2] | also measured
1 | Fc1ccc(Nc2nc(NCc3ncccn3)nc(Nc3ccc(F)cc3)n2)cc1 (as salt: HCl) [Compound 2a, N,N′-bis(4-fluorophenyl)-N″-(pyrimidin-2-ylmethyl)-1,3,5-triazine-2,4,6-triamine] | – | – | melting point: 183 to 186 °C
2 | Fc1ccc(Nc2nc(NCc3ncccn3)nc(Nc3ccccc3)n2)cc1 [Compound 1, N-(4-fluorophenyl)-N′-phenyl-N″-(pyrimidin-2-ylmethyl)-1,3,5-triazine-2,4,6-triamine] | 0.077 µM | 0.1 mg/kg p.o. | phencyclidine induced prolonged finding latency improving action (in words) [1]: suppressed phencyclidine induced prolongation of finding latency; Minimum effective dose (mg/kg p.o.) (Example 4) [1]: 0.03 mg/kg p.o.; phencyclidine induced prolonged immobility improving action (in words) [3]: suppressed phencyclidine induced prolongation of immobility time; Minimum effective dose (mg/kg p.o.) (Example 3) [3]: 0.03 mg/kg p.o.
3 | Fc1ccc(Nc2nc(NCc3ncccn3)nc(Nc3ccc(F)cc3)n2)cc1 [Compound 2a, N,N′-bis(4-fluorophenyl)-N″-(pyrimidin-2-ylmethyl)-1,3,5-triazine-2,4,6-triamine] | 0.065 µM | 0.03 mg/kg p.o. | –
4 | Fc1ccc(Nc2nc(NCc3ncccn3)nc(Nc3ccc(F)cc3)n2)cc1 [Compound 2b, N,N′-bis(4-fluorophenyl)-N″-(pyrimidin-2-ylmethyl)-1,3,5-triazine-2,4,6-triamine] | – | – | phencyclidine induced prolonged finding latency improving action (in words) [1]: suppressed phencyclidine induced prolongation of finding latency; Minimum effective dose (mg/kg p.o.) (Example 4) [1]: 0.01 mg/kg p.o.; phencyclidine induced prolonged immobility improving action (in words) [3]: suppressed phencyclidine induced prolongation of immobility time; Minimum effective dose (mg/kg p.o.) (Example 3) [3]: 0.01 mg/kg p.o.
5 | COc1ccc(Nc2nc(NCc3ncccn3)nc(Nc3ccc(F)cc3)n2)cc1 [Compound 3, N-(4-fluorophenyl)-N′-(4-methoxyphenyl)-N″-(pyrimidin-2-ylmethyl)-1,3,5-triazine-2,4,6-triamine] | 0.092 µM | 0.03 mg/kg p.o. | –
6 | Fc1ccc(Nc2nc(NCc3ccncn3)nc(Nc3ccc(F)cc3)n2)cc1 [Compound 4, N,N′-bis(4-fluorophenyl)-N″-(pyrimidin-4-ylmethyl)-1,3,5-triazine-2,4,6-triamine] | 0.058 µM | 0.01 mg/kg p.o. | –
7 | Cl.Fc1ccc(Nc2nc(NCc3ccnc(F)c3)nc(Nc3ccccc3)n2)cc1 [Compound 5, N-(4-fluorophenyl)-N′-[(2-fluoro-4-pyridyl)methyl]-N″-phenyl-1,3,5-triazine-2,4,6-triamine hydrochloride] | – | 1.0 mg/kg p.o. | –
8 | Cc1ccc(Nc2nc(NCc3ccnc(F)c3)nc(Nc3ccc(F)cc3)n2)cc1 [Compound 7, N-(4-fluorophenyl)-N′-[(2-fluoro-4-pyridyl)methyl]-N″-(4-methylphenyl)-1,3,5-triazine-2,4,6-triamine hydrochloride] | 0.24 µM | – | –
9 | COc1ccc(Nc2nc(NCc3ccnc(F)c3)nc(Nc3ccc(F)cc3)n2)cc1 [Compound 8, N-(4-fluorophenyl)-N′-[(2-fluoro-4-pyridyl)methyl]-N″-(4-methoxyphenyl)-1,3,5-triazine-2,4,6-triamine hydrochloride] | 0.17 µM | – | –
10 | COc1cccc(Nc2nc(NCc3ccnc(F)c3)nc(Nc3ccc(F)cc3)n2)c1 [Compound 10, N-(4-fluorophenyl)-N′-[(2-fluoro-4-pyridyl)methyl]-N″-(3-methoxyphenyl)-1,3,5-triazine-2,4,6-triamine hydrochloride] | 0.25 µM | – | –
